Legend:
Assay type in all cases: cell-based
[1] = system: interleukin 1β (IL-1β) gene expression; experiment: In vitro model of human inflammation: real-time PCR of IL-1β; details: 300 μM; 4 h, 14 h, 24 h, 48 h; effect mainly at 4 h and 14 h; one donor, preliminary
Procedure: (§1) FIG. 15—Glycerophosphoinositol modulates the kinetic transcriptional profile of genes involved in the regulation of inflammatory response. Human monocytes were purified from one donor and treated according to the in vitro model of human inflammation, previously described, in absence (blue line) or in presence (red line) of 300 μM glycerophosphoinositol. In detail glycerophosphoinositol was added to cells in culture 20 minutes before LPS, IL-10 and TGF-β, that is, again after each wash. Samples were collected at time 4 h, 14 h, 24 h, 48 h; freshly isolated monocytes have been considered as control at time 0 h. Total RNA was extracted from cells by RNeasy kit (Qiagen) and reverse-transcribed to cDNA (QuantiTect Reverse Transcription kit, Qiagen). […] Each sample was measured in triplicate and data were analyzed with Pfaffl methods for comparing relative expression data. The measurement of mRNA expression was expressed as fold-increase over control (time 0 h). […]
(§2) Total RNA was extracted with RNeasy kit (Qiagen) according to the manufacturer's instructions. Both integrity and quality of total RNA were checked by agarose gel electrophoresis and the concentration of each RNA sample was assessed spectrophotometrically. Total RNAs were reverse-transcribed to cDNA (QuantiTect Reverse Transcription kit, Qiagen) with oligo-dT and random primers, according to manufacturer's protocol. […]

[2] = system: phospholipase A2IVα (PLA2IVα) gene expression; experiment: In vitro model of human inflammation: real-time PCR of PLA2IVα; details: 300 μM; 4 h, 14 h, 24 h, 48 h; effect mainly at 4 h and 14 h; one donor, preliminary
Procedure: as §1, §2

[3] = system: interleukin-1 receptor II (IL-1RII) gene expression; experiment: In vitro model of human inflammation: real-time PCR of IL-1RII; details: 300 μM; 4 h, 14 h, 24 h, 48 h; one donor, preliminary
Procedure: as §1, §2

Interleukin 1β (IL-1β) = experiment: In vitro model of human inflammation: ELISA of IL-1β in supernatants; details: 300 μM; full inflammation (4 h and 14 h); one donor
Procedure: (§3) FIG. 16—Glycerophosphoinositol inhibits the release of cytokines. Human monocytes were purified from one donor and treated according to the in vitro model of human inflammation, previously described, in absence (blue line) or in presence (red line) of 300 μM glycerophosphoinositol. In detail, glycerophosphoinositol was added to cultured cells 20 minutes before LPS, IL-10 and TGF-β, that is, again after each wash. The growth medium was collected at time 4 h, 14 h, 24 h, 48 h; growth medium from freshly isolated monocytes was considered as control at time 0 h. The levels of cytokines Interleukin 1β (IL-1β), Tumor necrosis factor α (TNFα) and Interleukin-6 (IL-6) in the supernatants were measured by enzyme-linked immunosorbent assay (ELISA kit, R&D System) according to manufacturer's protocol. An increased release of these cytokines was observed during the full inflammation (time 4 h and 14 h) as expected. […]
(§4) Extracellular levels of IL-1β, TNFα and IL-6 were measured by enzyme-linked immunosorbent assay (ELISA) from R&D System. […] Then the recovered supernatants were loaded onto plates according to manufacturer's protocol and the concentration of the protein was assessed spectrophotometrically.

[4] = system: Tumor necrosis factor α (TNFα); experiment: In vitro model of human inflammation: ELISA of TNFα in supernatants; details: 300 μM; full inflammation (4 h and 14 h); one donor
Procedure: as §3, §4

## O=P(O)(OCC(O)CO)OC1C(O)C(O)C(O)C(O)C1O (centres unmarked) [GroPIns, glycerophosphoinositol]
[1]
  IL-1β mRNA expression: hampered the expression
[2]
  PLA2IVα mRNA expression: hampered the expression
[3]
  IL-1RII mRNA expression: favoured the expression
Interleukin 1β (IL-1β)
  amount of IL-1β in the supernatants: significantly reduced the amount of these cytokines in the supernatants
[4]
  amount of TNFα in the supernatants: significantly reduced the amount of these cytokines in the supernatants

Source: patent US9351983B2, “Use of glycerophosphoinositols for the treatment of septic shock” (CONSIGLIO NAZIONALE DELLE RICERCHE, priority 2012, dated 2016)
